Assay results from ChEMBL document CHEMBL1201862, “PubChem BioAssay data set” (2004).
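Growth conditions: 96-well plates. Treatment: test compound, 48 hours, 5 concentrations. Analysis: linear interpolation between bracketing concentrations; unreached endpoints set to highest concentration. GI50 is the concentration that inhibits growth by half.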 Active and inactive are the calls of the source. No stated cut-off is given here; in the data, active = GI50 up to about 1.1 µM and inactive = higher.

Key:
Test in all cases: NCI-60 cell line screen, 48 h
[1] = system: CCRF-CEM
[2] = system: PC-3
[3] = system: SR
[4] = system: SNB-75
[5] = system: HCT-116
[6] = system: OVCAR-8
[7] = system: K562
[8] = system: U-251
[9] = system: ACHN
[10] = system: MOLT-4
[11] = system: SF-268
[12] = system: BT-549
[13] = system: UO-31
[14] = system: HOP-92
[15] = system: COLO 205
[16] = system: SF-295
[17] = system: SK-MEL-5
[18] = system: UACC-62
[19] = system: NCI-H226

With `CC(Br)CN(CC(C)Br)c1ccc2c(c1)Cc1ccccc1-2` (centres undefined) the GI50 [1] was 2.03 µM (inactive), the GI50 [2] was 10.8 µM (inactive) and the GI50 [3] was 1.76 µM (inactive). The GI50 [4] was 12.2 µM (inactive), the GI50 [5] was 11.6 µM (inactive) and the GI50 [6] was 9.98 µM (inactive). The GI50 [7] was 5.92 µM (inactive), the GI50 [8] was 10.7 µM (inactive) and the GI50 [9] was 6.64 µM (inactive). For the same compound, the GI50 [10] was 2.34 µM (inactive), the GI50 [11] was 10.2 µM (inactive) and the GI50 [12] was 16.7 µM (inactive). For the same compound, the GI50 [13] was 12.4 µM (inactive), the GI50 [14] was 7.62 µM (inactive) and the GI50 [15] was 14.5 µM (inactive). The GI50 [16] was 10.7 µM (inactive), the GI50 [17] was 12.7 µM (inactive) and the GI50 [18] was 11.9 µM (inactive).
In the case of `O=S1(=O)NC2CCC3NS(=O)(=O)NC4CCC(N1)N4S(=O)(=O)N23` (centres undefined), the GI50 [19] was > 100 µM (inactive), the GI50 [2] was > 100 µM (inactive) and the GI50 [3] was > 100 µM (inactive). For the same compound, the GI50 [4] was > 100 µM (inactive), the GI50 [5] was > 100 µM (inactive) and the GI50 [6] was > 100 µM (inactive). For the same compound, the GI50 [7] was > 100 µM (inactive), the GI50 [8] was > 100 µM (inactive) and the GI50 [9] was > 100 µM (inactive). For the same compound, the GI50 [11] was > 100 µM (inactive), the GI50 [12] was > 100 µM (inactive) and the GI50 [13] was > 100 µM (inactive). For the same compound, the GI50 [14] was > 100 µM (inactive), the GI50 [15] was > 100 µM (inactive) and the GI50 [16] was > 100 µM (inactive). For the same compound, the GI50 [17] was > 100 µM (inactive) and the GI50 [18] was > 100 µM (inactive).
For `O=C(O)C(Oc1nc(S)nc(S)n1)(c1ccc(Cl)cc1)c1ccc(Cl)cc1`, the GI50 [19] was > 100 µM (inactive), the GI50 [2] was > 100 µM (inactive) and the GI50 [3] was > 100 µM (inactive). The GI50 [4] was > 100 µM (inactive), the GI50 [5] was > 100 µM (inactive) and the GI50 [6] was > 100 µM (inactive). The GI50 [7] was > 100 µM (inactive), the GI50 [8] was > 100 µM (inactive) and the GI50 [9] was > 100 µM (inactive). For the same compound, the GI50 [10] was > 100 µM (inactive), the GI50 [11] was > 100 µM (inactive) and the GI50 [12] was > 100 µM (inactive). The GI50 [13] was > 100 µM (inactive), the GI50 [14] was > 100 µM (inactive) and the GI50 [15] was > 100 µM (inactive). For the same compound, the GI50 [16] was > 100 µM (inactive), the GI50 [17] was > 100 µM (inactive) and the GI50 [18] was > 100 µM (inactive).
For `CC(C)CC(NC(=O)C(CSc1ccc([N+](=O)[O-])cc1)Cc1ccccc1)C(=O)Nc1ccccc1` (centres undefined), the GI50 [1] was 33.1 µM (inactive), the GI50 [2] was > 100 µM (inactive) and the GI50 [3] was > 100 µM (inactive). For the same compound, the GI50 [4] was 26.4 µM (inactive), the GI50 [5] was > 100 µM (inactive) and the GI50 [6] was 48.8 µM (inactive). For the same compound, the GI50 [7] was 85.5 µM (inactive), the GI50 [8] was > 100 µM (inactive) and the GI50 [9] was 80.7 µM (inactive). The GI50 [10] was 59 µM (inactive), the GI50 [12] was 12.3 µM (inactive) and the GI50 [13] was 43.1 µM (inactive). The GI50 [14] was > 100 µM (inactive), the GI50 [15] was > 100 µM (inactive) and the GI50 [16] was 39.1 µM (inactive). For the same compound, the GI50 [17] was 64.3 µM (inactive) and the GI50 [18] was > 100 µM (inactive).
With `Nc1nc2[nH]cc(CCc3ccc(C(=O)N[C@@H](CCC(=O)O)C(=O)O)cc3)c2c(=O)[nH]1` [PEMETREXED] the GI50 [19] was > 100 µM (inactive), the GI50 [2] was > 100 µM (inactive) and the GI50 [3] was > 100 µM (inactive). The GI50 [4] was > 100 µM (inactive), the GI50 [5] was 0.0597 µM (active) and the GI50 [7] was < 0.0258 µM (active). For the same compound, the GI50 [8] was > 100 µM (inactive), the GI50 [9] was 0.0255 µM (active) and the GI50 [10] was 0.0695 µM (active). For the same compound, the GI50 [11] was 0.387 µM (active), the GI50 [12] was > 100 µM (inactive) and the GI50 [14] was > 100 µM (inactive). For the same compound, the GI50 [15] was > 100 µM (inactive), the GI50 [16] was 0.418 µM (active) and the GI50 [17] was > 100 µM (inactive). The GI50 [18] was 0.23 µM (active).
For `CCC(=O)O[C@H]1CC[C@H]2[C@@H]3CCC4=CC(=O)C=C[C@]4(O)[C@H]3CC[C@]12C`, the GI50 [1] was 4.09 µM (inactive), the GI50 [19] was > 100 µM (inactive) and the GI50 [2] was 23.8 µM (inactive). For the same compound, the GI50 [3] was 2.67 µM (inactive), the GI50 [5] was 21.9 µM (inactive) and the GI50 [6] was 23 µM (inactive). For the same compound, the GI50 [7] was 3.39 µM (inactive), the GI50 [8] was 20.5 µM (inactive) and the GI50 [9] was 55.7 µM (inactive). The GI50 [10] was 8.87 µM (inactive), the GI50 [11] was 31 µM (inactive) and the GI50 [12] was 20.5 µM (inactive). For the same compound, the GI50 [13] was 64.1 µM (inactive), the GI50 [14] was 31.2 µM (inactive) and the GI50 [15] was 37.8 µM (inactive). The GI50 [16] was 26.1 µM (inactive), the GI50 [17] was 5.22 µM (inactive) and the GI50 [18] was 15.4 µM (inactive).
In the case of `O=C(O)CN1C(=O)C(Cc2ccc(O)cc2)N=C(c2cccc(O)c2)c2ccccc21` (centres undefined), the GI50 [19] was > 100 µM (inactive), the GI50 [2] was > 100 µM (inactive) and the GI50 [3] was > 100 µM (inactive). The GI50 [4] was 40 µM (inactive), the GI50 [5] was > 100 µM (inactive) and the GI50 [6] was > 100 µM (inactive). For the same compound, the GI50 [7] was > 100 µM (inactive), the GI50 [8] was > 100 µM (inactive) and the GI50 [9] was > 100 µM (inactive). For the same compound, the GI50 [10] was > 100 µM (inactive), the GI50 [11] was > 100 µM (inactive) and the GI50 [12] was > 100 µM (inactive). The GI50 [13] was > 100 µM (inactive), the GI50 [14] was > 100 µM (inactive) and the GI50 [16] was > 100 µM (inactive). For the same compound, the GI50 [18] was > 100 µM (inactive).
With `Cc1ccc(/C=C/C(=N/NC(=O)N/N=C(/C=C/c2ccc(C)cc2)C(C)C)C(C)C)cc1` the GI50 [1] was > 10 µM (inactive), the GI50 [19] was > 10 µM (inactive) and the GI50 [2] was > 10 µM (inactive). For the same compound, the GI50 [3] was > 10 µM (inactive), the GI50 [5] was 5.24 µM (inactive) and the GI50 [6] was > 10 µM (inactive). For the same compound, the GI50 [7] was > 10 µM (inactive), the GI50 [8] was > 10 µM (inactive) and the GI50 [9] was > 10 µM (inactive). For the same compound, the GI50 [10] was > 10 µM (inactive), the GI50 [11] was > 10 µM (inactive) and the GI50 [12] was > 10 µM (inactive). For the same compound, the GI50 [13] was > 10 µM (inactive), the GI50 [14] was > 10 µM (inactive) and the GI50 [15] was > 10 µM (inactive). The GI50 [16] was > 10 µM (inactive).
For `COc1cc(C#CC(=O)OC/C=C/c2ccc3c(c2)OCO3)cc(OC)c1OC`, the GI50 [1] was 18.9 µM (inactive), the GI50 [19] was 21.4 µM (inactive) and the GI50 [2] was 21.8 µM (inactive). For the same compound, the GI50 [3] was 16.7 µM (inactive), the GI50 [5] was 22.7 µM (inactive) and the GI50 [6] was 29.1 µM (inactive). For the same compound, the GI50 [7] was 28.9 µM (inactive), the GI50 [8] was 29.4 µM (inactive) and the GI50 [9] was 29.2 µM (inactive). For the same compound, the GI50 [11] was 19.5 µM (inactive), the GI50 [12] was 19.4 µM (inactive) and the GI50 [13] was 15.6 µM (inactive). The GI50 [14] was 17.8 µM (inactive), the GI50 [15] was 19.1 µM (inactive) and the GI50 [16] was 36.1 µM (inactive). The GI50 [17] was 17.5 µM (inactive) and the GI50 [18] was 18.8 µM (inactive).
In the case of `CC1(C)O[C@@H](CP(c2cccc3ccccc23)c2cccc3ccccc23)[C@H](CP(c2cccc3ccccc23)c2cccc3ccccc23)O1`, the GI50 [1] was > 100 µM (inactive), the GI50 [19] was > 100 µM (inactive) and the GI50 [2] was > 100 µM (inactive). The GI50 [3] was > 100 µM (inactive), the GI50 [4] was > 100 µM (inactive) and the GI50 [5] was > 100 µM (inactive). The GI50 [6] was > 100 µM (inactive), the GI50 [7] was > 100 µM (inactive) and the GI50 [8] was > 100 µM (inactive). For the same compound, the GI50 [9] was > 100 µM (inactive), the GI50 [10] was > 100 µM (inactive) and the GI50 [11] was > 100 µM (inactive). The GI50 [12] was > 100 µM (inactive), the GI50 [13] was > 100 µM (inactive) and the GI50 [15] was > 100 µM (inactive). The GI50 [16] was > 100 µM (inactive), the GI50 [17] was > 100 µM (inactive) and the GI50 [18] was > 100 µM (inactive).
`Nc1c(C(=O)O)nnc2cc(Cl)ccc12` was tested, and the GI50 [1] was > 100 µM (inactive), the GI50 [19] was > 100 µM (inactive) and the GI50 [2] was > 100 µM (inactive). For the same compound, the GI50 [3] was > 100 µM (inactive), the GI50 [4] was > 100 µM (inactive) and the GI50 [5] was > 100 µM (inactive). For the same compound, the GI50 [6] was > 100 µM (inactive), the GI50 [7] was > 100 µM (inactive) and the GI50 [8] was > 100 µM (inactive). The GI50 [9] was 97.5 µM (inactive), the GI50 [10] was > 100 µM (inactive) and the GI50 [11] was > 100 µM (inactive). For the same compound, the GI50 [12] was > 100 µM (inactive), the GI50 [13] was > 100 µM (inactive) and the GI50 [15] was > 100 µM (inactive). The GI50 [16] was > 100 µM (inactive), the GI50 [17] was > 100 µM (inactive) and the GI50 [18] was 32 µM (inactive).
